Experimental data published in patent US6982260B1, “Quinazolines and their use for inhibiting cyclin-dependent kinase enzymes” (Warner-Lambert Company, priority 1999, dated 2006).
Where two headings read alike, the source gives them in different places.

Assays:
[1] = target: cdk2/cyclinE (Homo sapiens, UniProt P24941); assay: cdk2/cyclinE kinase assay; assay type: biochemical; conditions: 32P incorporation into retinoblastoma, 25° C., 15 minutes; read-out: Cdk2E IC50
Method: (§1) All components except the ATP were added to the wells, and the plate was placed on a plate mixer for 2 minutes. The reaction was begun by addition of [^32P]ATP, and the plate was incubated at 25° C. for 15 minutes. The reaction was terminated by addition of 0.1 mL of 20% TCA. The plate was kept at 4° C. for at least 1 hour to allow the substrate to precipitate. The wells were then washed five times with 0.2 mL of 10% TCA and ^32P incorporation determined with a beta plate counter (Wallac Inc., Gaithersburg, Md.).

[2] = target: cdc2/cyclinB (Homo sapiens, UniProt P06493); assay: cdc2/cyclinB kinase assay (Table 1, CdkB); assay type: biochemical; conditions: 32P incorporation into retinoblastoma, 25° C., 15 minutes
cdc2/cyclinB, sequence (P06493 whole entry, species assumed): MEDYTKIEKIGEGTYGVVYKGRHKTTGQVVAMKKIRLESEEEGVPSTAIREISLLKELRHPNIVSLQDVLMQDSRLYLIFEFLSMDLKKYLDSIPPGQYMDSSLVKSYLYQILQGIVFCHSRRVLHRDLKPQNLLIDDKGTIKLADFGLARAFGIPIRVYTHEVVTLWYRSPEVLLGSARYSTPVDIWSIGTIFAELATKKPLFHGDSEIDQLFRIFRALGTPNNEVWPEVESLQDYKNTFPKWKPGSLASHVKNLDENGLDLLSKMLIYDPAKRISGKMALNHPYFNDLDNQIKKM
cdc2/cyclinB, sequence (P14635 whole entry partner, species assumed): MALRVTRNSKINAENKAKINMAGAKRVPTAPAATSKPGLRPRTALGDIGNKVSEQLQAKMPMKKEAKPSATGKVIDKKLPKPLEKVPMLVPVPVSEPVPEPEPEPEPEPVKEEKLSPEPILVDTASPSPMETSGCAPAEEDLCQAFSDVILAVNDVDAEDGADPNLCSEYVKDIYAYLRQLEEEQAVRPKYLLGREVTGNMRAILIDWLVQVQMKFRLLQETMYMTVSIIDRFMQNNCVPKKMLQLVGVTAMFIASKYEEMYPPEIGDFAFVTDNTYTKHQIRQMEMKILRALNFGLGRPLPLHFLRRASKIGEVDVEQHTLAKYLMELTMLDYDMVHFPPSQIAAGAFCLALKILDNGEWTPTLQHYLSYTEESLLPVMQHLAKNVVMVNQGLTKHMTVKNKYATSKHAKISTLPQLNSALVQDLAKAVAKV
Method: as §1

[3] = target: cdk4/D (Homo sapiens, UniProt P11802); assay: Cyclin-Dependent Kinase 4 (cdk4) Assay; assay type: biochemical
cdk4/D, sequence (P11802 whole entry, species assumed): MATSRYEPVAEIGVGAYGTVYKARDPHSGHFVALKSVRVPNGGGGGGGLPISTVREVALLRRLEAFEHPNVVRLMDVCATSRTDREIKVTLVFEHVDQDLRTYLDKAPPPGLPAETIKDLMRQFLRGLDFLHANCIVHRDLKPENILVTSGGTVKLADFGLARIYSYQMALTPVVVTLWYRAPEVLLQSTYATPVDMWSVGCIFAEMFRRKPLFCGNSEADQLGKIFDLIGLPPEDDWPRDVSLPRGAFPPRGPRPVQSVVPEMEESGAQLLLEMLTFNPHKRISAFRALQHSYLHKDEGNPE
cdk4/D, sequence (P24385 whole entry partner, species assumed): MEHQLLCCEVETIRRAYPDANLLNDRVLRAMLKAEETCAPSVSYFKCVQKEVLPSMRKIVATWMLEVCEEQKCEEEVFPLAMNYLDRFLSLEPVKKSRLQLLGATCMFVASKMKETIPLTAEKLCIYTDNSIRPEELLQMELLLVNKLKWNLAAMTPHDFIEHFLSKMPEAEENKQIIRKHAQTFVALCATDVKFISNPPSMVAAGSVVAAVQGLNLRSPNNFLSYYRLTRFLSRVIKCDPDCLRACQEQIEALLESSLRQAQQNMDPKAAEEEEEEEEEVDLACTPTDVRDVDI
Method: As noted above, the compounds of this invention are potent inhibitors of cyclin-dependent kinases, and accordingly, are useful in treating and preventing neurodegenerative disorders, atherosclerosis, and other cell proliferative disorders like cancer. […] A typical assay, for instance, measures inhibitory activity against the cyclin D dependent kinase 4 enzyme (cdk4/D). […] The cdk4 assay was carried out as follows.
Cyclin-Dependent Kinase 4 (cdk4) Assay
Enzyme assays for IC50 determinations (Table 1 above) and kinetic evaluation were performed in 96 well filter plates (Millipore MADVN6550). The total volume was 0.1 mL containing a final concentration of 20 mM TRIS (tris[hydroxymethyl]aminomethane), at pH 7.4, 50 mM NaCl, 1 mM dithiothreitol, 10 mM MgCl2, 25 μM ATP containing 0.25 μCi of [^32P]ATP, 20 ng of cdk4, 1 μg of retinoblastoma, and appropriate dilutions of a compound of the present invention. All components except the ATP were added to the wells, and the plate was placed on a plate mixer for 2 minutes. The reaction was started by adding [^32P]ATP and the plate was incubated at 25° C. for 15 minutes. The reaction was terminated by addition of 0.1 mL of 20% trichloroacetic acid (TCA). The plate was kept at 4° C. for at least 1 hour to allow the substrate to precipitate. The wells were then washed five times with 0.2 mL of 10% TCA and ^32P incorporation was determined with a beta plate counter (Wallac Inc., Gaithersburg, Md.).

[4] = target: cdk2/A (Homo sapiens, UniProt P24941); assay: cdk2/A kinase assay; assay type: biochemical; conditions: 32P incorporation into retinoblastoma, 25° C., 15 minutes; read-out: Cdk2A IC50
Method: as §1

[5] = 25 μM ATP, retinoblastoma substrate, 25° C., 15 minutes, read-out: Cdk4 IC50

Molecule | IC50 [1] [nM] | IC50 [2] [nM] | IC50 [3, 5] [nM] | melting point | IC50 [4] [nM] | IC50 [3] [nM]
COc1ccc2cnc(Nc3ccc(N4CCC(NC(=O)OC(C)(C)C)C4)cc3)nc2c1C1CCCC1 (centres unmarked) [Example 45, {1-[4-(8-Cyclopentyl-7-methoxy-quinazolin-2-ylamino)-phenyl]-pyrrolidin-3-yl}-carbamic Acid Tert-butyl Ester] | 6900 | > 1700 | 275 | 157 °C (dec.) | 2390 | –
COc1ccc2cnc(Nc3ccc(N4CCOCC4)c(F)c3)nc2c1C1CCCC1 [Example 43, (8-Cyclopentyl-7-methoxy-quinazolin-2-yl)-(3-fluoro-4-morpholin-4-yl-phenyl)-amine] | > 5000 | > 5000 | 70 | 252 to 253 °C | 966 | –
COc1ccc2cnc(Nc3ccc(N4CCCCC4)cc3)nc2c1C1CCCC1 [Example 23, (8-Cyclopentyl-7-methoxy-quinazolin-2-yl)-(4-piperidin-1-yl-phenyl)-amine] | > 5000 | > 5000 | – | 212 to 214 °C | 384 | 11
COc1ccc2cnc(Nc3ccc(N4CCCC4)cc3)nc2c1C(C)C [Example 22, (8-Isopropyl-7-methoxy-quinazolin-2-yl)-(4-pyrrolidin-1-yl-phenyl)-amine] | > 5000 | > 5000 | – | 188 to 190 °C | 1600 | 560
COc1ccc2cnc(Nc3ccc(N4CCOCC4)cc3)nc2c1C1CCCC1 [Example 44, (8-Cyclopentyl-7-methoxy-quinazolin-2-yl)-(4-morpholin-4-yl-phenyl)-amine] | 650 | 1590 | – | 243 to 244 °C | 383 | 18
COc1ccc2cnc(Nc3ccc(N4CCC(N)C4)cc3)nc2c1C(C)C (centres unmarked) [Example 37, [4-(3-Amino-pyrrolidin-1-yl)-phenyl]-(8-isopropyl-7-methoxy-quinazolin-2-yl)-amine] | 2550 | 1300 | – | – | 296 | 11
COc1ccc2cnc(Nc3ccc(N4CCCCC4)c(F)c3)nc2c1C1CCCC1 [Example 49, (8-Cyclopentyl-7-methoxy-quinazolin-2-yl)-(3-Fluoro-4-piperidin-1-yl-phenyl)-amine] | 8000 | > 5000 | 85 | 200 to 201 °C | – | –
COc1ccc2cnc(Nc3ccc(N4CCN(C(=O)OC(C)(C)C)CC4)cc3)nc2c1C1CCCC1 [Example 26, 4-[4-(8-Cyclopentyl-7-methoxy-quinazolin-2-ylamino)-phenyl]-piperazine-1-carboxylic Acid Tert-butyl Ester] | – | 4200 | 51 | 183 to 184 °C | 646 | –
(8-Isopropyl-7-methoxy-quinazolin-2-yl)-(4-piperidin-1-yl-phenyl)-amine [Example 47] | 4100 | 1070 | 75 | – | 264 | –
COc1ccc2cnc(Nc3ccccc3)nc2c1C1CCCC1 [Example 17, (8-Cyclopentyl-7-methoxy-quinazolin-2-yl)-phenyl-amine] | – | – | – | 187 to 188 °C | – | –
COc1ccc2cnc(Nc3ccc(N4CCN(C(C)=O)CC4)cc3)nc2c1C(C)C [Example 33, 1-{4-[4-(8-Isopropyl-7-methoxy-quinazolin-2-ylamino)-phenyl]-piperazin-1-yl}-ethanone] | 900 | – | – | 197 to 198 °C | – | 25
COc1ccc2cnc(Nc3ccc(N4CCOCC4)c(F)c3)nc2c1C(C)C [Example 38, (3-Fluoro-4-morpholin-4-yl-phenyl)-(8-isopropyl-7-methoxy-quinazolin-2-yl)-amine] | 2750 | 1230 | – | 202 to 203 °C | 451 | –
COc1ccc2cnc(Nc3ccc(N4CCCC4)cc3)nc2c1C1CCCC1 [Example 24, (8-Cyclopentyl-7-methoxy-quinazolin-2-yl)-(4-pyrrolidin-1-yl-phenyl)-amine] | – | > 5000 | – | 240 to 242 °C | – | 1750
COc1ccc2cnc(Nc3ccc(N4CCCCC4)cc3)nc2c1C(C)C [Example 21, (8-Isopropyl-7-methoxy-quinazolin-2-yl)-(4-piperidin-1-yl-phenyl)-amine] | 3100 | > 5000 | – | 166 to 167 °C | 410 | 52
CC(C)c1c(O)ccc2cnc(Nc3ccccc3)nc12 [Example 29, 8-Isopropyl-2-phenylamino-quinazolin-7-ol] | 550 | 813 | – | 103 to 104 °C | 250 | 325
COc1ccc2cnc(Nc3ccc(N4CCC(N)C4)cc3)nc2c1C1CCCC1 (centres unmarked) [Example 41, [4-(3-Amino-pyrrolidin-1-yl)-phenyl]-(8-cyclopentyl-7-methoxy-quinazolin-2-yl)-amine] | 950 | 398 | – | 220 to 221 °C | 203 | 116
COc1ccc2cnc(Nc3ccc(N4CCN(C(=O)CN)CC4)cc3)nc2c1C1CCCC1 [Example 40, 2-Amino-1-{4-[4-(8-cyclopentyl-7-methoxy-quinazolin-2-ylamino)-phenyl]-piperazin-1-yl}-ethanone] | 450 | 270 | – | 202 °C | 95 | 2
COc1ccc2cnc(Nc3ccc(N4CCN(C(C)=O)CC4)cc3)nc2c1C1CCCC1 [Example 20, 1-{4-[4-(8-Cyclopentyl-7-methoxy-quinazolin-2-ylamino)-phenyl]-piperazin-1-yl}-ethanone] | 265 | > 5000 | – | 247 to 249 °C | 50 | 2
COc1ccc2cnc(Nc3ccc(F)c(C)c3)nc2c1C1CCCC1 [Example 48, (8-Cyclopentyl-7-methoxy-quinazolin-2-yl)-(4-fluoro-3-methyl-phenyl)-amine] | 2200 | 1170 | 2400 | 208 to 209 °C | 574 | –
COc1ccc2cnc(Nc3ccc(N4CCN(C(=O)C(N)CC(C)C)CC4)cc3)nc2c1C1CCCC1 (centres unmarked) [Example 42, 2-Amino-1-{4-[4-(8-cyclopentyl-7-methoxy-quinazolin-2-ylamino)-phenyl]-piperazin-1-yl}-4-methyl-pentan-1-one] | 500 | 333 | – | 130 to 132 °C | 103 | –
COc1ccc2cnc(Nc3ccc(N4CCNCC4)cc3)nc2c1C1CCCC1 [Example 27, (8-Cyclopentyl-7-methoxy-quinazolin-2-yl)-(4-piperazin-1-yl-phenyl)-amine] | 250 | 132 | 1 | – | 28 | –
COc1ccc2cnc(Nc3ccc(N4CCN(C(=O)OC(C)(C)C)CC4)cc3)nc2c1C(C)C [Example 25, 4-[4-(8-Isopropyl-7-methoxy-quinazolin-2-ylamino)-phenyl]-piperazine-1-carboxylic Acid Tert-butyl Ester] | 10000 | 10200 | 63 | 173 to 175 °C | 1620 | –
COc1ccc2cnc(Nc3ccc(N4CCN(C(=O)CN)CC4)cc3)nc2c1C(C)C [Example 35, 2-Amino-1-{4-[4-(8-Isopropyl-7-methoxy-quinazolin-2-ylamino)-phenyl]-piperazin-1-yl}-ethanone] | 1100 | 800 | – | 183 to 185 °C | 191 | 10
(8-Isopropyl-7-methoxy-quinazolin-2-yl)-(4′-methoxy-biphenyl-4-yl)-amine [Example 36] | > 5000 | – | 225 | – | – | –
COc1ccc2cnc(Nc3ccc(N4CCNCC4)cc3)nc2c1C(C)C [Example 34, (8-Isopropyl-7-methoxy-quinazolin-2-yl)-(4-piperazin-1-yl-phenyl)-amine] | 1200 | 506 | – | – | 185 | 16
COc1ccc2cnc(Nc3ccc(N4CCOCC4)cc3)nc2c1C(C)C [Example 39, (8-Isopropyl-7-methoxy-quinazolin-2-yl)-(4-morpholin-4-yl-phenyl)-amine] | 4400 | 1970 | – | – | 665 | 52
